Source: a melting point compilation (Tetko et al.; mined from patent text by program, amines drawn as free bases though some values may be those of a salt)

Structure (SMILES) | melting point [°C]
COc1ccc(S(=O)(=O)C(CCCCCc2ccc(Cl)cc2)C(=O)O)cc1 (stereo not given) | 58 to 65
c1ccc2c(c1)-c1ccccc1C2CC1c2ccccc2-c2ccccc21 | 210 to 212
O=C(c1c2n(c3ccccc13)CCNCC2)C(F)(F)F | 131 to 133
Cc1cc(-c2cc(C(F)(F)F)nc(-c3cccc(-c4ccc(S(N)(=O)=O)s4)c3)n2)ccc1C(F)(F)F | 216
CCc1c(Oc2cc(C)cc(C)c2)n(CC2CC=CC2)c(=O)[nH]c1=O | 179 to 180
NS(=O)(=O)c1ccc(-c2cnn(CC(F)(F)F)c(=O)c2-c2ccc(Cl)cc2)cc1 | 154 to 156
COc1cc2nc(S(=O)(=O)Nc3c(Cl)cccc3Cl)nn2c(OC)n1 | 211 to 212
CC(NC(=O)C(F)(F)F)C(=O)O (stereo not given) | 68
Clc1cnn2c(-c3ccncc3)ccnc12 | 183 to 184
Cc1ccc(Cl)c(Nc2ccccc2-c2nnc(S(C)=O)s2)c1Cl (stereo not given) | 158 to 160
COc1ccc(CSc2ccc(S(N)(=O)=O)s2)cc1 | 139 to 141
CCSNc1c(C#N)cnn1-c1c(Cl)cc(C(F)(F)F)cc1Cl | 157 to 158
CCOC(=O)c1cc2c(o1)CNCC2(O)c1ccc(C)cc1 (stereo not given) | 194 to 196
COc1ccc(C2C(C#N)=C(N)Oc3c2ccc2cnccc32)cc1OC (stereo not given) | 215 to 218
Nc1ccc(NC(=O)C(=O)N2CCC(Cc3ccc(F)cc3)CC2)cc1 | 141 to 143
COc1nc(C)c(CCN2CC=C(c3c[nH]c4ccccc34)CC2)c(=O)n1C | 209 to 211
CNC(=O)NN(CC(=O)OC)c1cccc(Cl)c1 | 121 to 122
Cc1sc2nc(C=O)c(C)c(=O)n2c1C | 170 to 173
C#CCN1C(=O)COc2cc(F)c(-n3nc4ccc(Cl)cn4c3=O)cc21 | 196 to 198
O=C(NC(CS)Cc1ccccc1)N1C=CC=CC1 (single isomer, unassigned; (+)) | 115 to 117
Cn1c(C(F)(F)F)cc(=O)n(-c2cc(OCCNC=O)c(Cl)cc2F)c1=O | 128 to 131
CCN(CC)C(=O)n1cc(C(F)F)c(S(=O)(=O)c2cccc(Cl)c2)n1 | 86 to 88
CCC(O)CN1N=C(c2ccccc2)CC(O)C1=O (stereo not given) | 92 to 94
CCOc1ncnc(OCC)c1NC(N)=S | 212

Structure (SMILES) | melting point [°C]
c1ccc(N2c3ccccc3Sc3ccccc32)cc1 | 93 to 94
CCOC(=O)CCn1c(=O)c(=O)[nH]c2cc(C(F)(F)F)c(N)cc21 | 262 to 263
COC(=O)[C@@]1(O)C[C@@H](OC(=O)c2ccccc2)[C@@H]2OC(C)(C)O[C@@H]2C1 | 109 to 110
CC(C)n1nc(-c2sc(C(N)=O)nc2-c2cccc(F)c2)ccc1=O | 248 to 250
COC(=O)C1=C(C)NC(C)=C(P2(=O)OCCCO2)C1c1cccc([N+](=O)[O-])c1 (stereo not given) | 221 to 223
CC(C)(C)c1ccc(/C=N/OCCCOc2ccc(C(=O)O)c(NC(=O)c3ccc(C(C)(C)C)cc3)c2)cc1 | 192 to 194
CCCCCN1C(=O)C(CCC(=O)O)(NC(=O)c2ccc(Cl)c(Cl)c2)c2ccccc21 (stereo not given) | 202 to 204
CS(=O)(=O)c1ccc(CC(N)C(O)C(=O)C2(C(=O)NC(CCCNC(=N)N)C(=O)O)CCCC2N)cc1 (stereo not given) | 142 to 145
COc1ccccc1CN[C@H]1CCCN[C@H]1c1ccsc1 (relative stereo) | > 239
Cc1ccc2c(c1)c(=O)c1c(cnn1C)n2CC(N)=O | 247 to 252
CCOC(=O)C1=C(N)N=C(OCC)C(C(=O)OCC)C1c1ccc(SC)cc1 (stereo not given) | 132
Cc1c(S(=O)(=O)Nc2ccc(-c3nc(C(=O)O)co3)cc2S(C)(=O)=O)sc2ccc(F)cc12 | 289 to 291
Nc1ccc(-c2n[nH]c3c2Cc2ccccc2-3)cc1 | 253 to 254
CN1CCC(=C2c3ccccc3CCc3sc(Br)cc32)CC1 | 141 to 142
CC(=O)C1CCCNC1=O (stereo not given) | 101 to 103
CCC(=O)c1c(SC)sc(C#N)c1CC | 66 to 67
CNC(=N[N+](=O)[O-])NCCSCc1[nH]cnc1C | 112 to 114
CC(=O)c1c(CO)[nH]c(-c2ccncc2)c1C | 163 to 165
CCOP(=O)(OCC)C(C)NC(=O)c1cc(C)cc(OC)c1C1=CC(=O)c2c(O)cccc2C1=O (stereo not given) | 130 to 132
O=C(Nc1ccc(Oc2ccnc(NCC3CC3)n2)c2ccccc12)c1cc(F)cc(N2CCOCC2)c1 | 116 to 117
CS(=O)(=O)Nc1cccc(Nc2nc(NCc3cccc(C#N)c3)c3nc[nH]c3n2)c1 | 128 to 131
CC(=O)c1c(C)[nH]c(C(C)C)c1C | 166 to 167
CCOCc1cc(N)ccc1N1C(=O)c2ccc(Cl)cc2C1=O | 154 to 156
Cc1ccccc1-c1nc(-c2ccccc2C)nc(-c2ccccc2C)n1 | 110

Structure (SMILES) | melting point [°C]
CC(C)C[C@H](NC1CCCCC1)C(=O)N1CCN(C(c2ccc(F)cc2)c2ccc(F)cc2)CC1 | 45 to 54
CCOC(=O)C(C)OCC#Cc1cc(Cl)ccc1NS(=O)(=O)c1ccc2ncsc2c1 (stereo not given) | 166 to 168
Clc1cc(CC(Cl)(Cl)Cl)cnc1Cl | 98 to 99
Fc1cccc(F)c1-c1cccnc1 | 194 to 196
O=CN1CCN(c2ccnc(Cl)n2)CC1 | 125 to 126
CCn1c(=O)cc(C)c2ccc(OCCCN3CCC(NC(=O)c4ccccc4)CC3)cc21 | 164 to 165
O=C(NC(CO)CNS(=O)(=O)c1ccc(Oc2ccccc2)cc1)OCc1ccccc1 (stereo not given) | 86 to 89
[N-]=[N+]=NCCCc1ccc(C(N)=O)s1 | 85 to 87
CC(CSc1nc(-c2ccc(F)cc2)c(-c2ccc(F)cc2)[nH]1)Sc1nc(-c2ccc(F)cc2)c(-c2ccc(F)cc2)[nH]1 (stereo not given) | 243 to 245
Clc1ccc(-c2nc[nH]c2-c2cccs2)cc1 | 244 to 245
CC(C)CC(NC(=O)C(Cc1c[nH]cn1)NC(=O)C(CC(=O)NCCc1ccccc1)Cc1cccc2ccccc12)C(O)CNCc1ccccc1 (mixture of isomers) | 108 to 113
COC(=O)CCCc1cc2nc(Cl)ccc2n1S(=O)(=O)c1cccnc1 | 119
COc1ccc(OC)c2c1ccn2Cc1ccc(Cl)cc1 | 62 to 63
CCCC1=C(C(=O)OCC)C(c2ccoc2C)c2c[nH]nc2N1 (stereo not given) | 123 to 125
COc1cccc(N(CC(=O)N(C)c2ccccc2)C(=O)CNC(=O)Nc2cccc(C(C)O)c2)c1 (racemic) | 115
CCCc1nc(C)c2nnc3cc(OC)ccc3n12 | 159 to 162
COc1ccc(N2CCN(c3c(C)c4c(c(OC)c3C)OC(C)C4)CC2)cc1F (stereo not given) | 120 to 122
CCOC(=O)NC(=O)c1nn(-c2cc(Cl)c(C(C)(C)C#N)c(Cl)c2)c(=O)[nH]c1=O | 110
CCOC(=O)C(C)(C)c1ccc(CCNC(=O)c2ccc(Cl)cc2)cc1 | 108 to 109
O=C(O)CCc1cn(Cc2ccc(OCc3csc(-c4ccco4)n3)cc2)cc1-c1ccccc1 | 114 to 115
CC(C)c1cccc(C(C)C)c1NC(=O)CNC(c1ccccc1)c1cccc(CO)c1 (stereo not given) | 57 to 62
O=C(Nc1cc(C(F)(F)F)cc(C(F)(F)F)c1)c1cnc(Cl)nc1Cl | 104 to 105
